These results are taken from ChEMBL document CHEMBL3826947, “New 4-Acyl-1-phenylaminocarbonyl-2-phenylpiperazine Derivatives as Potential Inhibitors of Adenovirus Infection. Synthesis, Biological Evaluation, and Structure-activity Relationships” (J Med Chem, 2016).

Calls of active or inactive are those of the source. The rule behind the calls is not given here.

The nature of data set [1]: Cytotoxicity against human A549 cells assessed as cell viability after 48 hrs by Alamar blue assay. The data set is classed as cell-based.
In data set [2] the test system is Human adenovirus 5. Put plainly: Antiviral activity against HAdV5 infected in human A549 cells assessed as inhibition of viral genome entry in nucleus by measuring nuclear associated viral DNA level at 50 uM after 45 mins by real time PCR method (reference value: 78.55 +/- 1.37%). In kind it is functional. Set-up: scale not given: the % may be the effect or the level left.

Data set [3] concerns Human adenovirus 5. Kind of data set: Antiviral activity against HAdV5 infected in 293beta5 cells assessed as inhibition of plaque formation at 10 uM after 7 days by GFP reporter gene assay relative to control. The data set is classed as functional. To be noted: Human mastadenovirus C, 293beta5, 168 h.
Data set [4] deals with Human adenovirus 5. Kind of data set: Antiviral activity against HAdV5 infected in human A549 cells assessed as inhibition of viral entry at 50 uM preincubated for 45 mins followed by cell addition measured after 48 hrs by GFP reporter gene assay relative to control. To be noted: Human mastadenovirus C. In kind it is functional.
The nature of data set [5]: Antiviral activity against HAdV16 infected in human A549 cells assessed as reduction in viral yield at 50 uM after 48 hrs by virus burst size assay relative to control. In kind it is functional, Human adenovirus 16.
In data set [6] the test system is Human adenovirus 5. Put plainly: Antiviral activity against HAdV5 infected in human A549 cells assessed as reduction in viral yield at 50 uM after 48 hrs by virus burst size assay relative to control. The data set is classed as functional.
The nature of data set [7]: Selectivity index, ratio of CC50 for human A549 cells to IC50 for inhibition of HAdV5 plaque formation in 293beta5 cells. In kind it is functional.
Data set [8] is described as follows: Antiviral activity against HAdV16 infected in 293beta5 cells assessed as inhibition of plaque formation after 7 days by GFP reporter gene assay. The data set is classed as functional, cell-based, Human adenovirus 16. To be noted: Human mastadenovirus B, 293beta5, 168 h.
In data set [9] the test system is Human adenovirus 5. Put plainly: Antiviral activity against HAdV5 infected in 293beta5 cells assessed as inhibition of plaque formation after 7 days by GFP reporter gene assay. In kind it is functional, organism-based. As to conditions: for IC50: Human mastadenovirus C, 293beta5, 168 h.
Data set [10] is described as follows: Selectivity index, ratio of CC50 for human A549 cells to IC50 for inhibition of HAdV16 plaque formation in 293beta5 cells. In kind it is functional.
The subject of data set [11] is Human adenovirus 5. Kind of data set: Antiviral activity against HAdV5 infected in human A549 cells assessed as inhibition of viral DNA replication at 50 uM after 24 hrs by quantitative real time PCR method relative to control. The data set is classed as functional. As to conditions: Human mastadenovirus C, A549, 24 h.
Another data set relates to A549. Kind of data set: Effect on GAPDH gene expression in human A549 cells at 50 uM after 24 hrs by quantitative real time PCR method. The data set is classed as ADME, cell-based. To be noted: a549, 24 h.
Data set [12] concerns Human adenovirus 5. Kind of data set: Antiviral activity against HAdV5 infected in human A549 cells assessed as inhibition of viral entry preincubated for 45 mins followed by cell addition measured after 48 hrs by GFP reporter gene assay. The data set is classed as functional, organism-based. To be noted: for IC50: Human mastadenovirus C.
In data set [13] the test system is Human adenovirus 5. Put plainly: Antiviral activity against HAdV5 assessed as inhibition of E1A mRNA transcription measured 6 hrs post infection. The data set is classed as functional, organism-based.

As for `O=C(c1cc2ccccc2o1)N1CCN(C(=O)Nc2ccccc2[N+](=O)[O-])C(c2ccccc2)C1` (stereo unspecified), the CC50 at 48 h in data set [1] is 132 µM. Also, the Activity is given as 79.26% with Human adenovirus 5 [2] and “Non-toxic” with A549. Further, the inhibition at 10 µM in the data set on Human adenovirus 5 [3] came out at 100%. The results for the inhibition at 50 µM in the data set with Human adenovirus 5 [4] and in the data set on Human adenovirus 5 [11] were 38% and 73.1%, respectively. Also, the “fold change (FC)” value in [5] was found to be 46.5; in the data set with Human adenovirus 5 [6], 34.5. For the same compound, the entries for the “Ratio CC50/IC50” value in [7] and in [10] were 53.3 and 57.3, respectively. In addition, the IC50 in [8] came to 2.3 µM; in the data set with Human adenovirus 5 [9], 2.5 µM. For the same compound, the inhibition result in the data set with Human adenovirus 5 [9] was “Dose-dependent effect”.
As to `O=C(c1cc2ccccc2o1)N1CCN(C(=O)Nc2ccc([N+](=O)[O-])cc2)C(c2ccccc2)C1` (stereo unspecified), the 50% cytotoxic concentration (CC50) at 48 h in data set [1] came out at 194 µM. In addition, the Activity with Human adenovirus 5 [2] was 77.99%; with A549, “Non-toxic”. In addition, in the data set on Human adenovirus 5 [3], the inhibition at 10 µM is 100%. In addition, the inhibition at 50 µM in the data set on Human adenovirus 5 [4] was 84%; in the data set with Human adenovirus 5 [11], 80.9%. Further, the results for the “fold change (FC)” value (in data set [5]; in the data set on Human adenovirus 5 [6]) were 34.6 and 35.7, respectively. Also, the “Ratio CC50/IC50” value is reported as 93.5 in [7] and 55.4 in data set [10]. In addition, the IC50 was 3.5 µM in data set [8], 2.1 µM in the data set on Human adenovirus 5 [9] and 26.7 µM in the data set with Human adenovirus 5 [12]. In addition, the inhibition entry with Human adenovirus 5 [9] and in the data set with Human adenovirus 5 [12] was “Dose-dependent effect” in each case.
Regarding `N#Cc1ccc(NC(=O)N2CCN(C(=O)c3cc4ccccc4o3)CC2c2ccccc2)cc1` (stereo unspecified), in [1], the CC50 at 48 h is 200 µM. The results for the Activity in the data set on Human adenovirus 5 [2] and with A549 were 81.05% and “Non-toxic”, respectively. Further, the inhibition at 10 µM in the data set with Human adenovirus 5 [3] is 98%. For the same compound, the values for the inhibition at 50 µM with Human adenovirus 5 [4] and in the data set on Human adenovirus 5 [11] were 63% and 88.5%, respectively. Moreover, the “fold change (FC)” value turned out to be 60.9 in data set [5] and 16.9 in the data set with Human adenovirus 5 [6]. In addition, the “Ratio CC50/IC50” value in [7] was found to be 42.7; in data set [10] it was 51.2. For the same compound, the IC50 in data set [8] came to 3.9 µM; in the data set with Human adenovirus 5 [9] it was 4.7 µM. For the same compound, the inhibition entry in the data set on Human adenovirus 5 [9] is “Dose-dependent effect”.
Consider `CC(C)(C)OC(=O)N1CCN(C(=O)Nc2ccc([N+](=O)[O-])cc2)C(c2ccccc2)C1` (stereo unspecified), for which the CC50 at 48 h in data set [1] worked out at 161 µM. Further, the Activity is given as 77.96% in the data set on Human adenovirus 5 [2] and “Non-toxic” in the data set with A549. For the same compound, the inhibition at 10 µM with Human adenovirus 5 [3] is 96%. The inhibition at 50 µM came out at 80% in the data set with Human adenovirus 5 [4] and 80.7% with Human adenovirus 5 [11]. Further, the “fold change (FC)” value was 265.5 in [5] and 211.7 with Human adenovirus 5 [6]. In addition, the “Ratio CC50/IC50” value in data set [7] turned out to be 47.3; in data set [10], 33.6. Also, the IC50 in data set [8] was determined as 4.8 µM; with Human adenovirus 5 [9] it was 3.4 µM; in the data set with Human adenovirus 5 [12] it was 32.5 µM. In addition, the inhibition result in the data set on Human adenovirus 5 [9] and in the data set with Human adenovirus 5 [12] was “Dose-dependent effect” in each case.
In the case of `O=C(c1cc2ccccc2o1)N1CCN(C(=O)Nc2cc(C(F)(F)F)ccc2Cl)C(c2ccccc2)C1` (stereo unspecified), the half-maximal cytotoxic concentration (CC50) at 48 h in [1] worked out at 131 µM. The Activity in the data set on Human adenovirus 5 [2] is 85%. Further, the inhibition entry in the data set with Human adenovirus 5 [13] was “inactive”. Further, in the data set on Human adenovirus 5 [3], the inhibition at 10 µM stood at 97%. Moreover, in the data set with Human adenovirus 5 [4], the inhibition at 50 µM was 30%. Also, the “fold change (FC)” value in data set [5] worked out at 33.2; in the data set with Human adenovirus 5 [6], 60.3. The “Ratio CC50/IC50” value in [7] was 116.2; in data set [10], 72.7. Besides, the IC50 in [8] came out at 1.8 µM; in the data set on Human adenovirus 5 [9], 1.1 µM. For the same compound, the inhibition entry in the data set with Human adenovirus 5 [9] was “Dose-dependent effect”.
Take `O=C(c1cc2ccccc2o1)N1CCN(C(=O)Nc2ccc(Cl)cc2)C(c2ccccc2)C1` (stereo unspecified): the CC50 at 48 h in data set [1] came out at 194 µM. Besides, the values for the Activity in the data set with Human adenovirus 5 [2] and in the data set on A549 were 77.71% and “Non-toxic”, respectively. Also, the inhibition at 10 µM with Human adenovirus 5 [3] came to 100%. The values for the inhibition at 50 µM in the data set with Human adenovirus 5 [4] and in the data set with Human adenovirus 5 [11] were 33% and 78.9%, respectively. The “fold change (FC)” value in data set [5] stood at 27.4; with Human adenovirus 5 [6], 9.9. In addition, the “Ratio CC50/IC50” value in data set [7] came to 79; in data set [10], 56.9. Also, the values for the IC50 (in data set [8]; with Human adenovirus 5 [9]) were 3.4 µM and 2.5 µM, respectively. Further, the inhibition entry with Human adenovirus 5 [9] is “Dose-dependent effect”.
